Results published in paper PMC10244169, “Psychedelics promote plasticity by directly binding to BDNF receptor TrkB” (Nature Neuroscience, 2023).

What was measured:
mice = assay: Contextual fear conditioning, extinction and fear reinstatement (incl. baseline locomotor activity); assay type: in vivo, mouse; details: for Mean, figure 7k (contextual fear conditioning) / Mean, figure 7i (contextual fear conditioning) / Mean, figure 7j (contextual fear conditioning): LSD group; for Mean Diff., ext fig 7e: e7e; for Mean Diff., ext fig 7f: e7f; for Mean Diff., ext fig 7o: e7o, Bonferroni's multiple comparisons test
Experimental: Male WT mice (C57BL/6JRccHsd, Envigo) were used for contextual fear conditioning experiments with and without extinction training as previously described[11],[34] with modifications. Briefly, animals were conditioned in context A (metallic bar flooring, transparent Plexiglass walls, 23 × 23 × 35 cm arena) with a series of five scrambled foot shocks (0.6 mA, 2 s) along a 480 s session. […] During the following 3 days, mice were exposed to extinction training in context A for 480 s every 24 h or placed for the same duration and number of sessions in context B (black planar floor, black nontransparent walls, 23 × 23 × 35 cm arena), which we categorized as extinction and no extinction trainings, respectively. Afterwards, animals were placed back into their home cage and left undisturbed for 3 weeks. Finally, all mice were reconditioned with a new set of five scrambled foot shocks (0.6 mA, 2 s) along a 480 s session in context A, and their fear reinstatement response was measured 24 h later for the same duration also in context A. All sessions were conducted under constant illumination (100 lux). For the contextual fear conditioning and fear reinstatement experiment with male WT and Y433F^+/−, we used the same protocol as for animals undergoing extinction training in context A above. Baseline freezing was established during the first conditioning session. Movement was measured by infrared beams placed on the sides of the conditioning chamber, and freezing was automatically determined by the fear conditioning apparatus and software (TSE Systems) and expressed as the percentage of time spent freezing.

[1] = system: dentate granule cells (DGCs); assay: Long-term survival of newborn dentate granule cells (BrdU); assay type: in vivo, mouse; details: for Mean, figure 7b (survival of newborn dentate granule cells): LSD group; for e6h group mean: LSD
Experimental: WT and Y433F^+/− male mice were administered four doses of 5-bromo-2′-deoxyuridine (BrdU, 75 mg kg^−1 per injection, every 2 h) intraperitoneally to tag newborn neurons in the hippocampus and returned to their home cage. […] Four weeks later, animals were intracardially perfused with PBS followed by 4% PFA. Brains were dissected and postfixed with 4% PFA (overnight, 4 °C). Next, brains were transferred to 30% sucrose (0.1% PBS) solution and stored at 4 °C for 48–72 h. Brains were moved into disposable vinyl specimen molds (Sakura, Tissue-Tek Cryomold standard) and covered in Tissue-Tek O.C.T. Compound (Sakura). Trays were placed on dry ice and brains covered once more in TissueTec to ensure full coverage. Once frozen, samples were stored at −80 °C. Brains were sliced coronally at 40 µm thickness, collecting every sixth slice. Slices were stored in cryoprotectant fluid (30% sucrose, 30% ethylene glycol, 1% PVP-40, and 0.05 M PB) in −20 °C until staining. Every third hippocampal slice containing dentate gyrus (DG) was collected for washing with 0.1 M PBS and staining. BrdU immunofluorescence was conducted similarly as previously reported in the literature[28] with modifications. Hippocampal slices were incubated in 2.0 M HCl (30 min, 37 °C) and washed with PBS. Slices were then incubated in 0.1 M borate buffer (pH 8.0) at room temperature for 10 min, followed by further washes in PBS and 1 h incubation in 0.1% PBS blocking buffer (0.5% Triton X-100, 5% normal donkey serum, 5% normal goat serum, 1% BSA and 0.1% gelatin). Sections were incubated with primary antibodies rat anti-BrdU (Abcam, ab6326; 1:200) and mouse anti-NeuN (Millipore, MAB377; 1:1,000) for 48 h at 4 °C with gentle shaking. Slices were then washed with PBS, followed by incubation with secondary antibodies Alexa Fluor 488 donkey anti-rat (Invitrogen, A21208; 1:300) and Alexa Fluor 568 goat-anti-mouse (Invitrogen, A11004; 1:500) for 2 h at room temperature and protected from light. Slices were washed in PBS and PB before mounting with Dako fluorescence mounting medium (Agilent, S302380-2) and slides stored at 4 °C until imaging. A total of eight slices containing both hemispheres and covering the whole DG (every third slice) were imaged with a Zeiss LSM 710 confocal microscope. Fifteen optical sections with a Z-step of 2 µm were acquired per slice with a PlanApochromat 10×/0.45 M27. BrdU^+ and BrdU^+/NeuN^+ cells in the DG were counted manually by experimenters blinded to treatment and genotype using ZEN Blue 3.2. Similarly to Ma et al.[28], we estimated the number of mature neurons (BrdU^+/NeuN^+) in the DG of both hemispheres by multiplying by 6 the total count derived from every third hippocampal slice. The percentage of mature neurons over total BrdU^+ cells in the DG was also calculated.

Bdnf mRNA = assay: RT–qPCR of Bdnf mRNA in cortical neurons; details: for Bdnf mRNA, group mean (5f): LSD 100 nM
[2] = WT:Saline vs. WT:LSD, uncorrected Fisher's LSD
[3] = Y433F+/-:Saline vs. Y433F+/-:LSD, uncorrected Fisher's LSD
[4] = WT mice, saline minus LSD, uncorrected Fisher's LSD
[5] = Y433F+/- mice, saline minus LSD, uncorrected Fisher's LSD
[6] = means over WT and Y433F+/- mice

## CCN(CC)C(=O)C1C=C2c3cccc4[nH]cc(c34)CC2N(C)C1 (stereo not drawn) [LSD, lysergic acid diethylamide]
mice; [2]
  Mean Diff., Fig. 7i: 14.87
  Mean Diff., Fig. 7j: 16.98
  Mean Diff., ext fig 7e: -2.065
  Mean Diff., ext fig 7f: -1.252
mice; [3]
  Mean Diff., Fig. 7i: -1.67
  Mean Diff., Fig. 7j: -1.138
  Mean Diff., ext fig 7e: -2.882
  Mean Diff., ext fig 7f: -6.692
mice; Ext.:Saline vs. Ext.:LSD, uncorrected Fisher's LSD
  Mean Diff., Fig. 7k: 21.67
mice; No ext.:Saline vs. No ext.:LSD, uncorrected Fisher's LSD
  Mean Diff., Fig. 7k: 7.778
mice; Ext. (extinction training)
  Mean, figure 7k (contextual fear conditioning): 20.42
mice; Ext., saline minus LSD, uncorrected Fisher's LSD
  Mean Diff., figure 7k, Ext.:Saline vs. Ext.:LSD: 21.67
mice; LSD alone, no extinction training
  fear extinction without extinction training: does not bring about fear extinction
mice; No ext.
  Mean, figure 7k (contextual fear conditioning): 44.56
mice; No ext., saline minus LSD, uncorrected Fisher's LSD
  Mean Diff., figure 7k, No ext.:Saline vs. No ext.:LSD: 7.778
mice; WT mice, 72 h after single administration, persists at least 4 weeks, with extinction training
  contextual extinction of conditioned fear response: facilitates contextual extinction of conditioned fear response
mice; WT mice
  Mean, figure 7i (contextual fear conditioning): 20.6
  Mean, figure 7j (contextual fear conditioning): 39.47
mice; [4]
  Mean Diff., figure 7i, WT:Saline vs. WT:LSD: 14.87
  Mean Diff., figure 7j, WT:Saline vs. WT:LSD: 16.98
mice; Y433F+/- mice
  Mean, figure 7i (contextual fear conditioning): 34.18
  Mean, figure 7j (contextual fear conditioning): 54.05
mice; [5]
  Mean Diff., figure 7i, Y433F+/-:Saline vs. Y433F+/-:LSD: -1.67
  Mean Diff., figure 7j, Y433F+/-:Saline vs. Y433F+/-:LSD: -1.138
mice; Y433F^+/− mice
  contextual extinction of conditioned fear response: these short- and long-term effects are lost
mice; Ext.:Saline vs. Ext.:LSD
  Mean Diff., ext fig 7o: 6.343
mice; No ext.:Saline vs. No ext.:LSD
  Mean Diff., ext fig 7o: -0.7639
mice; mean over WT and Y433F+/- mice
  Predicted (LS) mean of LSD, figure 7i: 27.39
  Predicted (LS) mean of LSD, figure 7j: 46.76
mice; [6]
  Difference between predicted means (Saline - LSD), figure 7i: 6.598
  Difference between predicted means (Saline - LSD), figure 7j: 7.923
[1]; WT mice, 4 weeks after single administration (0.1 mg kg^−1 i.p.)
  number of surviving DGCs: doubles the number of surviving DGCs
[1]; WT mice
  Mean, figure 7b (survival of newborn dentate granule cells): 315.4
[1]; WT mice, n=7
  e6h group mean: 94.67
[1]; WT mice, saline minus LSD, Bonferroni's multiple comparisons test
  Mean Diff., figure 7b, WT:Saline vs. WT:LSD: -197.8
[1]; WT:Saline vs. WT:LSD, Bonferroni's multiple comparisons test
  e6h Mean Diff. (Saline minus LSD): -4.385
[1]; Y433F+/- mice
  Mean, figure 7b (survival of newborn dentate granule cells): 150
[1]; Y433F+/- mice, n=8
  e6h group mean: 94.59
[1]; Y433F+/- mice, saline minus LSD, Bonferroni's multiple comparisons test
  Mean Diff., figure 7b, Y433F+/-:Saline vs. Y433F+/-:LSD: 9.6
[1]; Y433F+/-:Saline vs. Y433F+/-:LSD, Bonferroni's multiple comparisons test
  e6h Mean Diff. (Saline minus LSD): 3.141
[1]; column mean across WT and Y433F+/- mice
  e6h Predicted (LS) mean of LSD: 94.63
[1]; mean over WT and Y433F+/- mice
  Predicted (LS) mean of LSD, figure 7b: 232.7
[1]; [6]
  Difference between predicted means (Saline - LSD), figure 7b: -94.11
Bdnf mRNA; 1 h, fold change, 1 h vehicle 1
  Bdnf mRNA, group mean (5f): 2.028
Bdnf mRNA; 24 h
  Bdnf mRNA, group mean (5f): 0.7739
Bdnf mRNA; 72 h
  Bdnf mRNA, group mean (5f): 0.7626
Bdnf mRNA; after LSD treatment
  Bdnf mRNA: upregulated at 1 h
Bdnf mRNA; vehicle 1.015
  Bdnf mRNA, predicted (LS) mean over timepoints (5f): 1.188
